One assay relates to anti-DNP antibodies. In words: Affinity for anti-DNP antibodies. The format is binding.
A further assay addresses T1, recombinant uPAR (Homo sapiens, UniProt Q03405).
T1 construct: purchased R&D systems
In words: Fluorescence quenching titration of ARM-U2 derivatives with uPAR. The format is binding. Particulars: fluorescence titration of 100 nM derivative with increasing uPAR; read-out: Kd, solution equilibrium dissociation constant with uPAR. On the procedure:
Selected ARM-U2 derivatives were assayed for their ability to bind recombinant uPAR using a fluorescence quenching assay. […] Increasing concentrations of recombinant uPAR were mixed with each compound containing aliquot and the fluorescence of the solution measured following 1 h equilibration times. […] To confirm that the observation of uPAR dependent fluorescence quenching was indeed due to specific binding to uPAR and to validate ARM-U2 binding to uPAR specifically via the uPA binding site, a direct binding ELISA assay was developed. In this assay, clear 96-well high-binding plates from CoStar, were loaded with 100 μl/well of 50 nM recombinant uPAR 807-UK-100-CF from R&D systems prepared from a 100 μg/ml (approx. 2.1 μM) stock of uPAR in PBS and left overnight at room temperature to equilibrate. Following equilibration, the plate was washed with wash buffer 1× (400 μl/well of 0.05% Tween/PBS), blotted dry and blocked for 1 hr with 300 ul/well of 2% BSA/PBS. Following blocking, the plate was washed with 400 ul of the wash buffer and blotted dry. […] The absorbance at 450 nm was measured using an in-house Perkin-Elmer fluorescence plate reader.
All ARM-U2 derivatives were assessed for their ability to bind selectively to recombinant uPAR in vitro using a competitive ELISA binding assay. […] Selective binding to uPAR by ARM-U2 at the uPA binding site competes with uPAR-uPA binding which is required for a positive UV 450 nm absorbance signal. Increasing concentrations of ARM-U2 displace increasing amounts of uPAR from uPA which is detected by anti-uPAR/biotin labeled antibodies followed by avidin-HRP. The sigmoidal binding isotherm of absorbance at 450 nm vs log ARM-U2 concentration can then by fit by non-linear regression analysis to obtain the IC50 for ARM-U2/uPAR binding (Equation S2) which can then be translated into a KI for ARM-U2/uPAR binding using a competitive binding model adapted from the Cheng-Prusoff equation relating KI to IC50 (Equation S3). […]

The target in the next assay is T2, immobilized uPAR (Homo sapiens, UniProt Q03405).
T2 construct: purchased R&D systems 807-UK-100-CF
T2 sequence (Q03405 23-305): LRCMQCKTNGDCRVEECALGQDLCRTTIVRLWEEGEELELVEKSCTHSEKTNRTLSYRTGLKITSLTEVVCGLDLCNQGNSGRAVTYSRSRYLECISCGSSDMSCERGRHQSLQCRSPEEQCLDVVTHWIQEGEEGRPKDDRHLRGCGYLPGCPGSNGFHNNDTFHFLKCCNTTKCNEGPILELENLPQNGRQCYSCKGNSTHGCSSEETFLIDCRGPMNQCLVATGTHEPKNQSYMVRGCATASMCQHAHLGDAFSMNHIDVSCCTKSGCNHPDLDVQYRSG
In words: Direct ELISA binding assay on immobilized uPAR. On the procedure: Selected ARM-U2 derivatives were assayed for their ability to bind recombinant uPAR using a fluorescence quenching assay. The compounds stored at −20° C. as DMSO stocks were diluted into PBS aliquots at a fixed 50 nM concentration. Increasing concentrations of recombinant uPAR were mixed with each compound containing aliquot and the fluorescence of the solution measured following 1 h equilibration times. […] To confirm that the observation of uPAR dependent fluorescence quenching was indeed due to specific binding to uPAR and to validate ARM-U2 binding to uPAR specifically via the uPA binding site, a direct binding ELISA assay was developed. In this assay, clear 96-well high-binding plates from CoStar, were loaded with 100 μl/well of 50 nM recombinant uPAR 807-UK-100-CF from R&D systems prepared from a 100 μg/ml (approx. 2.1 μM) stock of uPAR in PBS and left overnight at room temperature to equilibrate. Following equilibration, the plate was washed with wash buffer 1× (400 μl/well of 0.05% Tween/PBS), blotted dry and blocked for 1 hr with 300 ul/well of 2% BSA/PBS. Following blocking, the plate was washed with 400 ul of the wash buffer and blotted dry. […] The absorbance at 450 nm was measured using an in-house Perkin-Elmer fluorescence plate reader.
A general note: An ELISA detects its analyte on a solid surface through an enzyme-linked reagent.

In a further assay the target is T3, uPAR (uPA binding site) (Homo sapiens, UniProt Q03405).
T3 construct: purchased R&D systems
T3 sequence (Q03405 23-305): as above
In words: Competitive ELISA uPAR binding assay (immobilized urokinase). Particulars: at the uPA binding site. The method, then: The affinity of ARM-U2 derivatives differing in both the length of the DNP-linker substituted at position 2 of ring C and the display of negative charge density (FIG. 8, Table 1) for uPAR were assayed using a competitive ELISA binding assay. The assay involves the immobilization of urokinase, a natural high affinity ligand for uPAR followed by the addition of a fixed concentration of recombinant uPAR protein and increasing concentrations of ARM-U2 which competes with urokinase for binding to the uPA binding site of uPAR. Following several washing steps, the amount of uPAR bound is quantified by a biotinylated anti-uPAR antibody and avidin-HRP and can be fit to a competitive binding model allowing for the extraction of the uPAR/ARM-U2 Kd.
All ARM-U2 derivatives were assessed for their ability to bind selectively to recombinant uPAR in vitro using a competitive ELISA binding assay. DMSO stock solutions of each ARM-U2 derivative stored at −20° C. were titrated into wells pre-coated with human urokinase (isolated from human urine, ProSpec 1 mg/ml deI water 18.5 μM) in the presence of uPAR. Selective binding to uPAR by ARM-U2 at the uPA binding site competes with uPAR-uPA binding which is required for a positive UV 450 nm absorbance signal. Increasing concentrations of ARM-U2 displace increasing amounts of uPAR from uPA which is detected by anti-uPAR/biotin labeled antibodies followed by avidin-HRP. The sigmoidal binding isotherm of absorbance at 450 nm vs log ARM-U2 concentration can then by fit by non-linear regression analysis to obtain the IC50 for ARM-U2/uPAR binding (Equation S2) which can then be translated into a KI for ARM-U2/uPAR binding using a competitive binding model adapted from the Cheng-Prusoff equation relating KI to IC50 (Equation S3). The ELISA experiments were performed as followed: To Corning high binding 96 well flat bottom plates was added 100 μl/well of 100 nM urokinase in sterile PBS. The plates were sealed and left to incubate at 4° C. overnight. The plates were then washed 1× with 200 μl wash buffer (PBS+0.05% Tween-20) and 1× with 400 μl wash buffer. The plates were blotted on paper towel and blocked for 1 h shaking at room temp with 300 μl of a solution of thermo superblock in PBS per well. Molecule dilutions into solutions of a fixed concentration (10 nM) of uPAR were prepared in 0.025% triton-X/PBS on a separate low binding plate during the blocking hour. The plates were again washed followed by the addition of 100 μl of the ARM-U2/uPAR solution with 0.1% final DMSO concentration. The solutions were mixed by multichannel pipette, sealed, and incubated for 2 h with shaking at room temperature. The plates were then washed 1× with 200 μl wash buffer (PBS+0.05% Tween-20) and 2× with 400 μl wash buffer. The plates were blotted on a paper towel followed by the addition of 100 μl/well of a solution of biotinylated anti-uPAR antibody in 1% BSA/PBS. (R&D Systems, 3.3 μl taken from 50 μg/250 μl-1000× stock) and incubation with shaking for 1 h at room temp. The plates were washed 1× with 200 μl wash buffer and 2× with 400 μl wash buffer and blotted on a paper towel. 100 μl of avidin-HRP (stock −500× from e-bioscience) were added per well, incubated 20 min with shaking at room temp followed by washing 1× with 200 μl wash buffer and 3× with 400 μl wash buffer. The plates were blotted dry with paper towel and 100 μl of TMB substrate was added to each well. The emergence of blue color was monitored and the reaction quenched with the addition of 50 μl of 2M sulfuric acid to each well followed by measuring the absorbance at 450 nm using a fluorescence plate reader. […]

T1 sequence (Q03405 23-305): as above

Consider `O=C1c2ccccc2-c2onc3c(N4CCC[C@@H](C(=O)NCCCOCCOCCOCCCNc5ncccn5)C4)cc(Nc4ccc(S(=O)(=O)O)cc4S(=O)(=O)O)c1c23` [6-ABT-4], for which the “affinity for anti-DNP antibodies” value with anti-DNP antibodies is “no affinity for anti-DNP antibodies”. On to `O=C1c2ccccc2-c2onc3c(N4CCC[C@H](C(=O)NCCOCCOCCOCCOCCOCCOCCOCCNc5ccc([N+](=O)[O-])cc5[N+](=O)[O-])C4)cc(Nc4ccc(S(=O)(=O)O)cc4S(=O)(=O)O)c1c23` [6-ABT-2], for which the Kd at recombinant uPAR came out at 66 nM. At immobilized uPAR, the “binding to immobilized uPAR vs parent derivative” value is “much higher affinity than parent derivative 1-ABT-1”.

On to `O=C(O)c1cccc(Nc2cc(N3CCC[C@H](C(=O)NCCCOCCOCCOCCCNc4ccc([N+](=O)[O-])cc4[N+](=O)[O-])C3)c3noc4c3c2C(=O)c2ccccc2-4)c1` [1-ABT-1], for which the Kd at recombinant uPAR was 275 nM. On uPAR (uPA binding site), the “uPAR binding affinity (order of magnitude)” value is “triple digit nanomolar binding affinity”. Consider `O=C(CCCC(=O)NCCOCCOCCOCCOCCOCCOCCOCCNc1ccc([N+](=O)[O-])cc1[N+](=O)[O-])NCCOCCOCCOCCOCCOCCOCCOCCNC(=O)[C@H]1CCCN(c2cc(Nc3ccc(S(=O)(=O)O)cc3S(=O)(=O)O)c3c4c(onc24)-c2ccccc2C3=O)C1` [6-ABT-3], for which the Kd at recombinant uPAR was 18 nM.

One may read the Kd as the free concentration of one partner at which half of the binding sites on the other are occupied at equilibrium, for simple one-to-one binding.
